In patent US6887712B1, “Methods and compositions to lower plasma cholesterol levels” (AtheroGenics, Inc., priority 1998, dated 2005):

Columns and labels:
[1] = molecular target: T1, specific epitope on apoB-100 of LDL (Homo sapiens, UniProt P04114); assay: Immunoreactivity cell-free sandwich ELISA: binding of LDL to capture anti-apoB monoclonal antibody; conditions: for Cell-Free Assay: immunoreactivity cell-free assay of Example 3, yes/no
T1 construct: from tissue; host or cells: LDL particles (plasma lipoprotein)
Excerpt: To determine if the binding of the monosuccinic acid ester to VLDL and LDL can cause a change in the structure of apoB-100, an immunoreactivity assay was designed. This is a sandwich ELISA assay which measures the expression of a specific epitope on apoB-100. Essentially the sandwich ELISA consists of a specific monoclonal antibody directed to that epitope on apoB-100 as a capture antibody laid onto a microtitre plate. […] A second polyclonal antibody is then used to quantify the amount of LDL captured.
The detailed immunoreactivity protocol is as follows. A nunc maxi-sorp microtiter plate is coated overnight at 4° C. with 100 μl of Anti-Human ApoB monoclonal antibody from Boehringer Mannheim (catalog # 1533 975) diluted 1:1000 in PBS pH 7.4. The compounds are dissolved in DMSO with appropriate concentration of LDL for 15 minutes and incubated at 37° C.
The coated microtiter plate is washed three times with 200 μl PBS/0.05% tween, and a sample of 100 μl LDL/Compound or LDL standard is added to each well. The plates are then incubated for 2 hours at room temperature.
The microtiter plate is washed three times with 200 μl PBS/0.05% tween, and 100 μl of 1:2000 Polyclonal Human Anti-ApolipoproteinB from Boehringer Mannheim (catalog # 726 494) in PBS/tween 0.05% is added. The plate is incubated for one hour at room temperature.
The microtiter plate is washed three times with 200 ul PBS/0.05% tween, and 100 μl of 1:2000 Anti-Sheep Ig peroxidase from Boehringer Mannheim (catalog # 605 345) in PBS/05% tween is added. The plate is incubated for one hour at room temperature.
The microtiter plate is washed three times with 200 ul PBS/0.05% tween, and 100 μl of TMB substrate is added and incubated for 5-10 minutes in the dark. The reaction is stopped with 15 μl 8N H2SO4 and read on the Bio-Rad Microplate plate reader at 450 nm within 30 minutes.

plasma cholesterol = assay: Plasma cholesterol lowering in hamsters; set-up: species or system hamster; conditions: ability to lower plasma cholesterol in vivo in hamsters, yes/no
Description: The monosuccinic acid ester of probucol and several other compounds were tested in vitro in the immunoreactivity cell-free assay described above in Example 3 and in vivo in hamsters for their ability to lower plasma cholesterol.

purified human LDL = molecular target: T2, purified human LDL (Homo sapiens, UniProt P04114); assay: Agarose electrophoresis of purified human LDL mixed with compound; assay type: binding
T2 construct: from tissue; host or cells: human LDL particles (plasma lipoprotein)
Description: Agarose electrophoresis is a technique used to separate and study lipoproteins. The monosuccinic acid ester of probucol was added to purified human LDL and the mixture was run on agarose electrophoresis.

VLDL and LDL clearance = assay: Lipoprotein turnover study in monkeys (stable isotope labelling of apoB-100); assay type: in vivo, monkey; conditions: no species or dose stated
Description: A lipoprotein turnover study was performed in monkeys that were dosed with the monosuccinic acid ester of probucol (25 mg/kg/day for one four weeks). The clearance rates of VLDL and LDL were examined before and after treatment of the animals using a stable isotope technique to label apoB-100 in VLDL and LDL.

total plasma cholesterol = assay: Cholesterol lowering in mice lacking functional LDL receptors; assay type: in vivo, mouse; conditions: LDL receptor-deficient mice, 150 mg/kg/day oral with high fat/high cholesterol diet, 12 weeks
Description: To explore whether the enhanced clearance is mediated by the tissue LDL receptors, the major clearance mechanism for LDL in the body, the LDL lowering activity of the monosuccinic acid ester of probucol was tested in a mouse model that lacks functional LDL receptors (eliminated through genetic engineering).

[2] = test system: LDL cholesterol, HDL, plasma triglycerides; conditions: human, in vivo; cited from earlier work

T1 sequence (P04114 28-4563): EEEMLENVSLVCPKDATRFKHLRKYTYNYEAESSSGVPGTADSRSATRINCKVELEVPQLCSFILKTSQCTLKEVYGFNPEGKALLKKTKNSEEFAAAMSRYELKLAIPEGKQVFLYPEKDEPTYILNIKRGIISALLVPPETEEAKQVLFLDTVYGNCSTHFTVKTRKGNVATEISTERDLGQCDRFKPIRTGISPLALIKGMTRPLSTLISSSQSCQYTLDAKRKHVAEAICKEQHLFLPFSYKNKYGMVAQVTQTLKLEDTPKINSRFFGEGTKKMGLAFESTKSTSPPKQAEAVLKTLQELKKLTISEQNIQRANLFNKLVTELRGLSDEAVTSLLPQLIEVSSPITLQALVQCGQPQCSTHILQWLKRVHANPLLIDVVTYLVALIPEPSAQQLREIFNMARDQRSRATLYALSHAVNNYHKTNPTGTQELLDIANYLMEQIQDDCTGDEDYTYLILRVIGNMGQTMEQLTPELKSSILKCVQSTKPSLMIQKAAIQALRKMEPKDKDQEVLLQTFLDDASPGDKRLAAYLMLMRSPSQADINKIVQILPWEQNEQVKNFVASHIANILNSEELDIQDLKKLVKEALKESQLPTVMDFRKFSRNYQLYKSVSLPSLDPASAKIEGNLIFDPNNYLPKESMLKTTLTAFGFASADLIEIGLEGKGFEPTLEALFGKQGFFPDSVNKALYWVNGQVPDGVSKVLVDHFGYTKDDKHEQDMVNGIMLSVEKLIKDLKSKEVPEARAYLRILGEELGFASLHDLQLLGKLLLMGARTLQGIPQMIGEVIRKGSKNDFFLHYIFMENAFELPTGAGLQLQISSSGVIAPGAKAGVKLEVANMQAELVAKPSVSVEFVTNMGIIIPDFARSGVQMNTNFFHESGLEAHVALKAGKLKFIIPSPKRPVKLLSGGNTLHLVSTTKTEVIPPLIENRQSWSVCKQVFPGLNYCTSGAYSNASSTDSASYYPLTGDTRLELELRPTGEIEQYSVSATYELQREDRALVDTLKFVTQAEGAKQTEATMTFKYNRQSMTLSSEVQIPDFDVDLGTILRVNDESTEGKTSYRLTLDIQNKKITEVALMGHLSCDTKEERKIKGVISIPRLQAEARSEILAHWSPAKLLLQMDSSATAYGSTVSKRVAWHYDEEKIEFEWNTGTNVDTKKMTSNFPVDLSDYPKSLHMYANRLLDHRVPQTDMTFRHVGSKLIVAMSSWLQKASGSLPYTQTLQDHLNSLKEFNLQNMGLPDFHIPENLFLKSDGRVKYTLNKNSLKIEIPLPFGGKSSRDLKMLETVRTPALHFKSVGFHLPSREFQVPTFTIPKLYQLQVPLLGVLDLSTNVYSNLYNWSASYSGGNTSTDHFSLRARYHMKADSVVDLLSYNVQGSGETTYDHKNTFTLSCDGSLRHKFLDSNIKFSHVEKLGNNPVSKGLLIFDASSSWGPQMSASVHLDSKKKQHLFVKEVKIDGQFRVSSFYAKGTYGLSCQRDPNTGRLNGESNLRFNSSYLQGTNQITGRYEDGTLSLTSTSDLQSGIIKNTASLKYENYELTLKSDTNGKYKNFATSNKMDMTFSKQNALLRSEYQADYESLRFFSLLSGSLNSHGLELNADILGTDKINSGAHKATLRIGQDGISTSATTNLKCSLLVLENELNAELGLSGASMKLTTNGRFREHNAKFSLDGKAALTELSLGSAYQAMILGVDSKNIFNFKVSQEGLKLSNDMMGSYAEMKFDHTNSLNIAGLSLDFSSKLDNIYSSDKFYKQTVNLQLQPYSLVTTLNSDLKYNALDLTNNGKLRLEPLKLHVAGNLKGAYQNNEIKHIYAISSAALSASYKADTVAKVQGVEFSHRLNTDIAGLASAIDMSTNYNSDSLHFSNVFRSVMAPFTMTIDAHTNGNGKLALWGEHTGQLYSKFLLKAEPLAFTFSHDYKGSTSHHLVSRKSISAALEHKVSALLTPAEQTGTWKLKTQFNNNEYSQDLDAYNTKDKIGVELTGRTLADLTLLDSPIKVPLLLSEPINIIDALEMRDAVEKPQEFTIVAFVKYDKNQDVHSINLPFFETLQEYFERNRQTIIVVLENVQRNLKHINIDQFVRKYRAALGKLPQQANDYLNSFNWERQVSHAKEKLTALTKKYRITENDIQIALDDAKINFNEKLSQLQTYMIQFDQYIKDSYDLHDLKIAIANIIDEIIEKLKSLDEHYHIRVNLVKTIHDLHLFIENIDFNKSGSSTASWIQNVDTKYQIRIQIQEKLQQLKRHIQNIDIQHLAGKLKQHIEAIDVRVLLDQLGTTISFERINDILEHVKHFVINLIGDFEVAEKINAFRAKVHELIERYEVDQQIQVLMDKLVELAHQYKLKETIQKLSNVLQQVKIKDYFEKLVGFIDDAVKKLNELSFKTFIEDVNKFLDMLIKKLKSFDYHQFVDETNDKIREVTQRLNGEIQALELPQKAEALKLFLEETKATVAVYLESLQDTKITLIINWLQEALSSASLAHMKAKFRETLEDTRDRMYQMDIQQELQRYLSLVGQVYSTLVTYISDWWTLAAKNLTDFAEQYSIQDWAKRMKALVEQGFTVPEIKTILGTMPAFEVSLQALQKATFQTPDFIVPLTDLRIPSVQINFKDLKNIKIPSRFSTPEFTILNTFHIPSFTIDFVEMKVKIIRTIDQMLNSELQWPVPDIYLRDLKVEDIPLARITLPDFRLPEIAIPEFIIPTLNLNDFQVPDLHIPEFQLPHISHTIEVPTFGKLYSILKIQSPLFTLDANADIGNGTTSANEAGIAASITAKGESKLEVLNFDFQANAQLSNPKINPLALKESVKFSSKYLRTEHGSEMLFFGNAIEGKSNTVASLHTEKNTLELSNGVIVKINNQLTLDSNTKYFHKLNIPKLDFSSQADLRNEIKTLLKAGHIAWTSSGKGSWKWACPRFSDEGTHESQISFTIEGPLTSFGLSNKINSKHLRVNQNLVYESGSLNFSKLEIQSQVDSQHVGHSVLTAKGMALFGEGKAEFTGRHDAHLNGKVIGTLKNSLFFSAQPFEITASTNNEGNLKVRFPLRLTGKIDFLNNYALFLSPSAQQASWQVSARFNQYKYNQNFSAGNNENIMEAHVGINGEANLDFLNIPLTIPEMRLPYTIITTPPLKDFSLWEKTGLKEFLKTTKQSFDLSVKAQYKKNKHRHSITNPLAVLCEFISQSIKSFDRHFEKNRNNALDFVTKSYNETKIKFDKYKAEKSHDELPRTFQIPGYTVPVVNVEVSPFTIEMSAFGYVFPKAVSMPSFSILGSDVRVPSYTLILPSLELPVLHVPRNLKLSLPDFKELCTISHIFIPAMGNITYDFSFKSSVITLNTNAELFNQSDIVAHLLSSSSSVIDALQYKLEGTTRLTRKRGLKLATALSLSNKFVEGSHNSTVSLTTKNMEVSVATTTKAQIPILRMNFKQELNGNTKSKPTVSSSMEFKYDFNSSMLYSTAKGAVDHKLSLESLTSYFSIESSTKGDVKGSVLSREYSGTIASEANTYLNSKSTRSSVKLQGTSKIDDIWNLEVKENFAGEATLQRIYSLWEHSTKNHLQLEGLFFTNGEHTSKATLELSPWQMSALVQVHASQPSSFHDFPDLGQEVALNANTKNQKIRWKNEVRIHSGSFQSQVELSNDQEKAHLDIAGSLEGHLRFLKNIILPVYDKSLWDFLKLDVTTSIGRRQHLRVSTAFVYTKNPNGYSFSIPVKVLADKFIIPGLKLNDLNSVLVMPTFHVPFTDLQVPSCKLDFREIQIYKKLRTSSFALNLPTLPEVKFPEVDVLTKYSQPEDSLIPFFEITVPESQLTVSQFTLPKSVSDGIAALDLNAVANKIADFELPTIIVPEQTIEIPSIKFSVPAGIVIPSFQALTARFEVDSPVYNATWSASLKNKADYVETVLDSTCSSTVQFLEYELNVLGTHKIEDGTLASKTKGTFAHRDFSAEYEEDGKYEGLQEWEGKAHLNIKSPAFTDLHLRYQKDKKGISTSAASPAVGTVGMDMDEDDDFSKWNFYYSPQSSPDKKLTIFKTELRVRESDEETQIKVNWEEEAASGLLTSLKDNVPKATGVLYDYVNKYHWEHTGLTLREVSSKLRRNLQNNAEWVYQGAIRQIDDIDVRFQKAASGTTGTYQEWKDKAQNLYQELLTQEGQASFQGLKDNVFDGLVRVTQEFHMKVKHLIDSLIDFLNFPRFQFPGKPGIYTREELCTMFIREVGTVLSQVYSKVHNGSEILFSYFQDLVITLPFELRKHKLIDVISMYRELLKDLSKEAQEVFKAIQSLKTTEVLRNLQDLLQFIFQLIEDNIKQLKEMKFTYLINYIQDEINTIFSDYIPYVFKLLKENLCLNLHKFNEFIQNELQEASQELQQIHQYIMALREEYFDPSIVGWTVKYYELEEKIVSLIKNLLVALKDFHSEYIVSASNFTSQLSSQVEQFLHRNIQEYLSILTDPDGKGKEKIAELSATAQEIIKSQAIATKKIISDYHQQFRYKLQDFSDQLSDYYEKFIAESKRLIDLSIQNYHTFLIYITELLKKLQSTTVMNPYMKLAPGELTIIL
T2 sequence (P04114 28-4563): as above

## CC(C)(C)c1cc(SCc2ccc([N+](=O)[O-])cc2[N+](=O)[O-])cc(C(C)(C)C)c1O [2,6-di-tert-butyl-4-[(2,4-dinitrobenzyl)thio]phenol]
[1]
  Cell-Free Assay: no
Plasma cholesterol
  Hamster: no

## CC(C)(Sc1cc(C(C)(C)C)c(O)c(C(C)(C)C)c1)Sc1cc(C(C)(C)C)c(OCC(O)C(O)C(O)C(=O)O)c(C(C)(C)C)c1 (stereo not shown) [5-[4-[[1-[[3,5-bis(1,1-dimethylethyl)-4-hydroxyphenyl)thio]-1-methylethyl]thioo-2,6-bis(1,1-dimethylethyl)phenoxy-2,3,4-trihydroxy-pentanoic acid]
[1]
  Cell-Free Assay: yes
Plasma cholesterol
  Hamster: no

## Mono[4-(3,5-di-tert-butyl-4-hydroxybenzyl)-2,6-di-tert-butylphenyl]glutarate
[1]
  Cell-Free Assay: no
Plasma cholesterol
  Hamster: no

## vitamin E [reference compound]
[1]
  effect on binding of LDL to the capture monoclonal antibody (FIG. 6a): no significant effect

## CN(C)S(=O)(=O)c1ccc(CSc2cc(C(C)(C)C)c(O)c(C(C)(C)C)c2)cc1 [2,6-di-tert-butyl-4-thio-(4′-methyl-N,N-dimethylbenzenesulfonamide) phenol]
[1]
  Cell-Free Assay: yes
Plasma cholesterol
  Hamster: yes

## CC(C)(C)c1cc(SCc2cccc(C(F)(F)F)c2)cc(C(C)(C)C)c1O [2,6-di-tert-butyl-4-[(3-trifluoromethyl)benzylthio]phenol]
[1]
  Cell-Free Assay: no
Plasma cholesterol
  Hamster: yes

## CC(C)(Sc1cc(C(C)(C)C)c(O)c(C(C)(C)C)c1)Sc1cc(C(C)(C)C)c(OC[C@@H](O)[C@@H](O)[C@H](O)[C@@H](O)C=O)c(C(C)(C)C)c1 [6-deoxy-6-(probucol-1-yl)-D-glucose]
[1]
  Cell-Free Assay: yes
Plasma cholesterol
  Hamster: yes

## CN(C)C(=O)c1ccc(CSc2cc(C(C)(C)C)c(O)c(C(C)(C)C)c2)cc1 [N,N-dimethyl-4-[(3,5-di-tert-butyl-4-hydroxyphenylthio)methyl]benzamide]
[1]
  Cell-Free Assay: no
Plasma cholesterol
  Hamster: yes

## CC(C)(C)c1cc(SCc2ccc(C(F)(F)F)cc2)cc(C(C)(C)C)c1O [2,6-di-tert-butyl-4-thio-(4′-(trifluoromethyl)benzyl) phenol]
[1]
  Cell-Free Assay: yes
Plasma cholesterol
  Hamster: yes

## CC(C)(C)c1cc(SCC(=O)c2ccc([N+](=O)[O-])cc2)cc(C(C)(C)C)c1O [α-(3,5-di-tert-butyl-4-hydroxyphenylthio)-4-nitro-acetophenone]
[1]
  Cell-Free Assay: no
Plasma cholesterol
  Hamster: yes

## CC(C)(C)c1cc(SCc2cccc(OC(F)(F)F)c2)cc(C(C)(C)C)c1O [2,6-di-tert-butyl-4-[(3-trifluoromethoxy)benzylthio]phenol]
[1]
  Cell-Free Assay: no
Plasma cholesterol
  Hamster: no

## O=C(O)CCC(=O)O [succinate, reference compound]
[1]
  effect on binding of LDL to the capture monoclonal antibody (FIG. 6a): no significant effect

## CC(C)(C)c1cc(SCc2ccc(OC(=O)c3ccccc3)cc2)cc(C(C)(C)C)c1O [4-[(3,5-di-tert-butyl-4-hydroxyphenylthio)methyl]phenyl benzoate]
[1]
  Cell-Free Assay: yes
Plasma cholesterol
  Hamster: yes

## CC(C)(C)c1cc(SCc2ccc(CCO)cc2)cc(C(C)(C)C)c1O [2,6-di-tert-butyl-4-thio-(4′-(methyl)phenylethyl alcohol))phenol]
[1]
  Cell-Free Assay: yes
Plasma cholesterol
  Hamster: yes

## Cc1c(C)c2c(c(C)c1OC(=O)CCC(=O)O)CC[C@@](C)(CCC[C@H](C)CCC[C@H](C)CCCC(C)C)O2 [vitamin E succinate, reference compound]
[1]
  effect on binding of LDL to the capture monoclonal antibody (FIG. 6a): increased the binding of LDL

## CN(C)C(=O)Cc1ccc(CSc2cc(C(C)(C)C)c(O)c(C(C)(C)C)c2)cc1 [N,N-dimethyl-4-[(3,5-di-tert-butyl-4-hydroxyphenylthio)methyl]phenylacetamide]
[1]
  Cell-Free Assay: yes
Plasma cholesterol
  Hamster: yes

## CC(C)(Sc1cc(C(C)(C)C)c(O)c(C(C)(C)C)c1)Sc1cc(C(C)(C)C)c(OC(=O)CCCC(=O)O)c(C(C)(C)C)c1 [pentanedioic acid, mono[4-[[1-[3,5-bis(1,1-dimethylethyl)-4-hydroxyphenyl]thio]1-methylethyl]thio-2,6-bis(1,1-dimethylethyl)phenyl]ester]
[1]
  Cell-Free Assay: yes
Plasma cholesterol
  Hamster: yes

## Mono[4-(3,5-di-tert-butyl-4-hydroxybenzyl)2,6-di-tert-butylphenyl] succinate
[1]
  Cell-Free Assay: yes
Plasma cholesterol
  Hamster: no

## CCN(CC)S(=O)(=O)c1ccc(CSc2cc(C(C)(C)C)c(O)c(C(C)(C)C)c2)cc1 [N,N-diethyl-4-[3,5-di-tert-butyl-4-hydroxyphenylthio)methyl]benzene-sulfonamide]
[1]
  Cell-Free Assay: no
Plasma cholesterol
  Hamster: no

## CC(C)(Sc1cc(C(C)(C)C)c(O)c(C(C)(C)C)c1)Sc1cc(C(C)(C)C)c(OCC(O)C(O)C(O)C(O)CO)c(C(C)(C)C)c1 (stereo not shown) [probucol-2,3,4,5,6-pentahydroxyhexyl ether]
[1]
  Cell-Free Assay: yes
Plasma cholesterol
  Hamster: yes

## Mono[4-(3,5-di-tert-butyl-4-hydroxyphenacylthio)-2,6-di-tert-butylphenyl] succinate
[1]
  Cell-Free Assay: yes
Plasma cholesterol
  Hamster: no

## CCCN(CCC)C(=O)c1ccc(CSc2cc(C(C)(C)C)c(O)c(C(C)(C)C)c2)cc1 [N,N-dipropyl-4-[(3,5-di-tert-butyl-4-hydroxyphenylthio)methyl]benzamide]
[1]
  Cell-Free Assay: no
Plasma cholesterol
  Hamster: no

## CC(C)(C)c1cc(SCc2ccc(F)cc2C(F)(F)F)cc(C(C)(C)C)c1O [2,6-di-tert-butyl-4-[4-fluoro-2-(trifluoromethyl)benzylthio]phenol]
[1]
  Cell-Free Assay: no
Plasma cholesterol
  Hamster: no

## COC(=O)c1ccc(CSc2cc(C(C)(C)C)c(O)c(C(C)(C)C)c2)o1 [Methyl 5-(3,5-id-tert-butyl-4-hydroxyphenylthio)methyl-2-furoate]
[1]
  Cell-Free Assay: yes
Plasma cholesterol
  Hamster: yes

## CC(C)(Sc1cc(C(C)(C)C)c(O)c(C(C)(C)C)c1)Sc1cc(C(C)(C)C)c(O)c(C(C)(C)C)c1 [probucol, 4,4′-(isopropylidenedithio) bis(2,6-di-tert-butylphenol), reference compound]
Purified human LDL
  shift of electrophoretic mobility of LDL: did not shift the mobility of LDL
[1]
  effect on binding of LDL to the capture monoclonal antibody (FIG. 6a): no significant effect
VLDL and LDL clearance
  effect on clearance of VLDL (general statement): little effect
Total plasma cholesterol
  lowering of plasma cholesterol: 17%
[2]
  effect on plasma triglycerides: no effect

## CC(C)(C)c1cc(SCc2ccc(F)cc2)cc(C(C)(C)C)c1O [2,6-di-tert-butyl-4-[(4-fluorobenzyl)thio]phenol]
[1]
  Cell-Free Assay: no
Plasma cholesterol
  Hamster: no
